Results: PMC5400565, “Real-time near-infrared fluorescence imaging using cRGD-ZW800-1 for intraoperative visualization of multiple cancer types” (Oncotarget, 2017)

Columns and labels:
Adenosine A2A = molecular target: T1, Adenosine A2A (Homo sapiens, UniProt P29274); experiment: Off-target screening (Eurofins Cerep), A2A; type: binding
T1 construct: Eurofins Cerep SA (contract screening)

Adrenergic β2 = molecular target: T2, Adrenergic β2 (Homo sapiens, UniProt P07550); experiment: Off-target screening (Eurofins Cerep), β2; type: binding
T2 construct: Eurofins Cerep SA (contract screening)

Dopamine D1 = molecular target: T3, Dopamine D1 (Homo sapiens, UniProt P21728); experiment: Off-target screening (Eurofins Cerep), D1; type: binding
T3 construct: Eurofins Cerep SA (contract screening)

Vasopressin V1a = molecular target: T4, Vasopressin V1a (Homo sapiens, UniProt P37288); experiment: Off-target screening (Eurofins Cerep), V1a; type: binding
T4 construct: Eurofins Cerep SA (contract screening)

KV channel = experiment: Off-target screening (Eurofins Cerep), KV channel; type: binding
Description: Off-target interactions are binding of tracers to other components on the cell surface than the actual target site. These non-specific interactions are often of low affinity and easily missed, but can have significant effects. We outsourced the screening for in vitro for off-target interactions of cRGD-ZW800-1 to Eurofins Cerep SA, Le bois l’Evêque, France. They assessed the percentage of inhibition of a reference compound in 44 selected targets, including G protein-coupled receptors (GPCRs), transporters, ion channels, nuclear receptors, kinases and other non-kinase enzymes. These targets were recommended by four major pharmaceutical companies. The complete list is included in Supplementary Table 1 of the Supplementary Data. Each assay was performed twice using 10 μM cRGD-ZW800-1 and a reference compound. Inhibition higher than 50% was considered to represent a significant effect of cRGD-ZW800-1. Results showing between 20% and 50% were considered weak to moderate effects, while lower than 20% was not considered significant and mostly attributable to variability of the signal around the control level.

MAO-A = molecular target: T5, MAO-A (Rattus norvegicus, UniProt P21396); experiment: Off-target screening (Eurofins Cerep), MAO-A; type: binding
T5 construct: Eurofins Cerep SA (contract screen)

BxPC-3 pancreatic tumors = experiment: NIR fluorescence imaging, BxPC-3 pancreatic tumors; type: in vivo, mice; conditions: all three dose groups (1.0, 10, 30 nmol), FLARE and Pearl, skin as background
Procedure: (§1) To induce subcutaneous tumors, colorectal cancer cells (HT-29) were injected at 4 sites on the back (500,000 cells per spot). Subsequently, these colorectal tumor cells were transplanted on the colon of other mice, as described by Tseng et al.. Approximately 500,000 pancreatic tumor cells (BxPC-3) were injected into the pancreas, as previously described by Kim et al.. Approximately 40,000 oral tumor cells (OSC-19) were injected in the tongue, as previously described by van Driel et al.. Approximately 500,000 breast tumor cells (MCF-7) were injected in both sides of the mammary fat pad to induce breast cancer tumors.
All animals were imaged using a Pearl® imager (LI-COR, Lincoln, NE) and an original FLARE® prototype. Animals with HT-29 tumors were imaged at 4 and 24 h post injection; animals with BxPC-3 and OSC-19 tumors at 4 h only. Animals with MCF-7 tumors were imaged at 0.5, 1, 2, 4, 6, 8, 24 and 48 h post injection. […] TBRs were calculated by dividing the tumor signal by the background signal. […]
Mice were administered with 0.25 (HT-29 model only), 1.0, 10, or 30 nmol cRGD-ZW800-1 to evaluate tumor signals, biodistribution, and to calculate TBRs (n = 3 per dose group). At 4 h (BxPC-3 model) and 24 h (HT-29 model) after injection, mice were fully dissected and fluorescence intensity of their organs was measured.

MCF-7 breast tumors = experiment: NIR fluorescence imaging, MCF-7 breast tumors; type: in vivo, mice; conditions: 10 nmol, Pearl
Procedure: as §1
All animals were imaged using a Pearl® imager (LI-COR, Lincoln, NE) and an original FLARE® prototype. Animals with HT-29 tumors were imaged at 4 and 24 h post injection; animals with BxPC-3 and OSC-19 tumors at 4 h only. Animals with MCF-7 tumors were imaged at 0.5, 1, 2, 4, 6, 8, 24 and 48 h post injection. The specific and control images were normalized and regions of interest (ROIs) were selected using associated software. TBRs were calculated by dividing the tumor signal by the background signal. Based on our experience a TBR ≥ 2 is sufficient to discriminate between tumor and surrounding tissue.
Mice bearing orthotopic OSC-19 tumors (n = 2) were administrated with 10 nmol cRGD-ZW800-1 and imaged at 4 h. Mice bearing orthotopic MCF-7 tumors (n = 2) were injected with 10 nmol cRGD-ZW800-1 and imaged at 0.5, 1, 2, 4, 6, 8, 24, and 48 h post injection. One mouse with 2 MCF-7 tumors was administered with 10 nmol cRGD-ZW800-1 and imaged at 4 h post injection while its skin was partially removed. In vivo TBRs were calculated by dividing the mean fluorescence signals of tumors by the mean of surrounding tissue. Ex vivo organ-to-tumor ratios were calculated by dividing the fluorescence intensity of the organ by that of the tumor.

[1] = Pharmacokinetics in mice without tumors; type: in vivo
Procedure: cRGD-ZW800-1 was diluted in 0.05 mM HEPES buffered mouse serum to the concentrations 5.00, 4.50, 4.00, 3.50, 3.00, 2.50, 2.00, 1.50, 1.00, 0.50, 0.25, 0.13, 0.06, 0.03, and 0.02 μM. A calibration curve was created by measuring each concentration in 60 μL capillary tubes (Hirschmann® Laborgeräte GmbH and co. KG, Eberstadt, Germany) using the FLARE® with exposure times of: 1, 2, 5, 10, 25, 50, 100, 200, 500, 1000, and 2000 msec. Data were plotted in fluorescence intensity over concentration (μM) (Supplementary Figure 2, Supplementary Data). For each exposure time, the formula of the linear regression line was calculated. Subsequently, 5 mice without tumors were injected with 10 nmol cRGD-ZW800-1 via the lateral tail vein. The contralateral lateral tail vein was used to draw blood on the time points -5, 1, 6, 10, 20, 30, 40, 50, 60, 90, 120, and 240 min. post injection. Blood samples were absorbed using 60 μL capillary tubes and immediately measured using the FLARE® with the same exposure times. Saturated images and those under the detection limit were excluded from analysis. Each measurement was calculated back to its concentration using the matching formulas (Supplementary Figure 3, Supplementary Data). The mean of each formula output was used as the concentration. Data was analyzed using NONMEM® software (Icon Development Solutions, Ellicott City, MD, U.S.A.). Data were plotted in logarithmic and linear concentration (μM) over time (min).

Potassium Channel hERG = Potassium Channel hERG (Homo sapiens, UniProt Q12809)
[2] = 10 μM cRGD-ZW800-1, format H, Ag, performed twice, read-out: % Inhibition of Control Specific Binding
[3] = 10 μM, mean of 2, read-out: % of Control Specific Binding Mean
[4] = mice, 10 nmol i.v., mean ± SD, n = 5

T1 sequence (P29274 whole entry): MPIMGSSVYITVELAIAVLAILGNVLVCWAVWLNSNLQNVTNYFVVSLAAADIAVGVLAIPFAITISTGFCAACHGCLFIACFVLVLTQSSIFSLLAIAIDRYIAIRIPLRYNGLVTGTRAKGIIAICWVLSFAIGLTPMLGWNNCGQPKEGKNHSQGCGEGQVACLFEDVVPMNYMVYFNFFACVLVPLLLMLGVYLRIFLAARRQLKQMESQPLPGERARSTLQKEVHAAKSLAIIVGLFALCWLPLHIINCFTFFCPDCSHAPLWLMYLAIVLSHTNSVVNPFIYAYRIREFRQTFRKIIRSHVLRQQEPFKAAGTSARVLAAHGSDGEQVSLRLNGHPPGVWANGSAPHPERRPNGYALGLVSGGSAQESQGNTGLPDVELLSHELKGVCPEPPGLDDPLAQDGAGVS
T5 sequence (P21396 whole entry): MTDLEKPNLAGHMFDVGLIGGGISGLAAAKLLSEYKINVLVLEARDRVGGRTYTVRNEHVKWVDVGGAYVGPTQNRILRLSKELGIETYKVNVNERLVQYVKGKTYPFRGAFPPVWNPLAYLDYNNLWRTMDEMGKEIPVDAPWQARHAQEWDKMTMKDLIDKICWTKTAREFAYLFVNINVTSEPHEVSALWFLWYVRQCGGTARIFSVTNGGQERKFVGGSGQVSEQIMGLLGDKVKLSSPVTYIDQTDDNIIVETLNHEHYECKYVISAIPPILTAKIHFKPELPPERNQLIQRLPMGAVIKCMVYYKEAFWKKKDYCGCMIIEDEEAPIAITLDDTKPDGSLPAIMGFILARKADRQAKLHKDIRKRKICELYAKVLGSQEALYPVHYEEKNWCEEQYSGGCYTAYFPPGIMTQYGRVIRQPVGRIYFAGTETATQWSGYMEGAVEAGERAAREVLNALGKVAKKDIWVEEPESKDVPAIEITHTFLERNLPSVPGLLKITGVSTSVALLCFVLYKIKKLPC
T4 sequence (P37288 whole entry): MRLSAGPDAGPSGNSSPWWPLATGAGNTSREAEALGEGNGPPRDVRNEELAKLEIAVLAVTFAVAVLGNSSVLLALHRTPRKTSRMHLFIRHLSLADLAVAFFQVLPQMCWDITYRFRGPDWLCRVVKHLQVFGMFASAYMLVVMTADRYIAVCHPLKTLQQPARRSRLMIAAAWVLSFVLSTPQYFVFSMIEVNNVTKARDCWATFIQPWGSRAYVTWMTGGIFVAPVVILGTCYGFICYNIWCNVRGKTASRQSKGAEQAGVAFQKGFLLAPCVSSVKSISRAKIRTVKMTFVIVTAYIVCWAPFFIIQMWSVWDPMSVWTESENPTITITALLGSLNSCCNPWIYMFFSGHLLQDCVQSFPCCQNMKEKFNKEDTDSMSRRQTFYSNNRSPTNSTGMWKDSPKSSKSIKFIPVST
T2 sequence (P07550 whole entry): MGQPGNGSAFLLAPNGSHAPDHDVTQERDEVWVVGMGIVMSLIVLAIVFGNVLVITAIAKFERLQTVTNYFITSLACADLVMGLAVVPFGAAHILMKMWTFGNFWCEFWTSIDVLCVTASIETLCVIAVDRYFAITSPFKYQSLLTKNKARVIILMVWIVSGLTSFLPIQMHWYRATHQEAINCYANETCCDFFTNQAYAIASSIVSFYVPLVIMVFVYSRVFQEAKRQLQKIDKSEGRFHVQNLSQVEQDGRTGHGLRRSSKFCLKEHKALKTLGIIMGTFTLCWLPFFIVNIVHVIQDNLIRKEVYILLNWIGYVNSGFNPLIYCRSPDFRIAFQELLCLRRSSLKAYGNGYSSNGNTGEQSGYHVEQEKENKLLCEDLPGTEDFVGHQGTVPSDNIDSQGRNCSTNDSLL
T3 sequence (P21728 whole entry): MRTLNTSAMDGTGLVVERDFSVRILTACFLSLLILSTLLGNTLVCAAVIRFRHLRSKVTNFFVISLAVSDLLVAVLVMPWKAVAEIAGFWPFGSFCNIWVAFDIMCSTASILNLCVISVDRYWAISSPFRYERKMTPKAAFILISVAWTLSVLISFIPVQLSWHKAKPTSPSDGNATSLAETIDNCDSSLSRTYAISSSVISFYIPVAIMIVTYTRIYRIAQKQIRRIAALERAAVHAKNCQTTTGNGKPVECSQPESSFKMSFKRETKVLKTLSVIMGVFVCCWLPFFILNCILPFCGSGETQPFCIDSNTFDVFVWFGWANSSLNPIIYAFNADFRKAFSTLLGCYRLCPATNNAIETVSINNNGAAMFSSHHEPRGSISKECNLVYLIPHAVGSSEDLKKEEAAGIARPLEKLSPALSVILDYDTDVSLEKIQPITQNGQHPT
Sequence of Potassium Channel hERG (Q12809 whole entry): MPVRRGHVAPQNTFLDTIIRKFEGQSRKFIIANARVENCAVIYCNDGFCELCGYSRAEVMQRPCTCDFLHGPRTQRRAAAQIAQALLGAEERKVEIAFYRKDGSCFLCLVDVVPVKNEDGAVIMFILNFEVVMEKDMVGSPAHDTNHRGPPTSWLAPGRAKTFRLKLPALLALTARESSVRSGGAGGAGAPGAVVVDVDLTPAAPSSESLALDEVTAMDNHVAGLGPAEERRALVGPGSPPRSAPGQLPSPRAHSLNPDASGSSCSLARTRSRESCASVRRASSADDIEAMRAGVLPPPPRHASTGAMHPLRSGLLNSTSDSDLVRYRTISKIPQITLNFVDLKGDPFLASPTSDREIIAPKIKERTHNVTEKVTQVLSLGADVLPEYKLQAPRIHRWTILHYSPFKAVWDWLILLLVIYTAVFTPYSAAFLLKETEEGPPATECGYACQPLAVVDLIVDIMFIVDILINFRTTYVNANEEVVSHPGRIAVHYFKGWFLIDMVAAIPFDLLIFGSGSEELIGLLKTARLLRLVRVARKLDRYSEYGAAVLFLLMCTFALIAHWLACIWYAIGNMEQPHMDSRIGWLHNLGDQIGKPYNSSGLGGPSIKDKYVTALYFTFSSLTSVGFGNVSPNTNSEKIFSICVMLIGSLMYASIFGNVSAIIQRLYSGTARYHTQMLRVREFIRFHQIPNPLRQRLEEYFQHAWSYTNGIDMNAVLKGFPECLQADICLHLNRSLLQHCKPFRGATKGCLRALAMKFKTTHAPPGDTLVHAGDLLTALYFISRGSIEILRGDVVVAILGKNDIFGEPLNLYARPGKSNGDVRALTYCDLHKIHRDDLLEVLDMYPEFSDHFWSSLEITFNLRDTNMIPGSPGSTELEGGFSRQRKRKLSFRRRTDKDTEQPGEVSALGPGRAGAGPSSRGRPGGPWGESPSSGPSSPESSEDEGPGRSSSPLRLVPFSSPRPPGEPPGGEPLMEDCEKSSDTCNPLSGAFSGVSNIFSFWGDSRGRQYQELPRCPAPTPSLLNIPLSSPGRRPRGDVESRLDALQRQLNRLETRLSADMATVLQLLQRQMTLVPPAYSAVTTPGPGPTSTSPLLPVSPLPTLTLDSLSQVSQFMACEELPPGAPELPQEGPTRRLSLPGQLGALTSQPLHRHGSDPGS

CC1(C)C(/C=C/C2=C(Oc3ccc(CCC(=O)NCCCC[C@@H]4NC(=O)[C@@H](Cc5ccc(O)cc5)NC(=O)[C@H](CC(=O)O)NC(=O)CNC(=O)[C@H](CCCNC(=N)N)NC4=O)cc3)C(=C/C=C3/N(CCC[N+](C)(C)C)c4ccc(S(=O)(=O)O)cc4C3(C)C)/CCC2)=[N+](CCC[N+](C)(C)C)c2ccc(S(=O)(=O)O)cc21 [cRGD-ZW800-1]
inhibition at 10 µM (Adenosine A2A; [2]): 8% | remaining activity at 10 µM (Adenosine A2A; [3]): 91.9% | inhibition at 10 µM (Adrenergic β2; [2]): 5% | remaining activity at 10 µM (Adrenergic β2; [3]): 95% | inhibition at 10 µM (Dopamine D1; read-out: % Inhibition of Control Specific Binding): -1% | remaining activity at 10 µM (Dopamine D1; read-out: % of Control Specific Binding Mean): 101% | inhibition at 10 µM (Vasopressin V1a; [2]): 4% | remaining activity at 10 µM (Vasopressin V1a; [3]): 96% | % Inhibition of Control Specific Binding (KV channel; 10 μM cRGD-ZW800-1, format An, performed twice): 2% | % of Control Specific Binding Mean (KV channel; 10 μM, mean of 2): 98.0% | inhibition at 10 µM (MAO-A; 10 μM cRGD-ZW800-1, format An, performed twice, read-out: % Inhibition of Control Specific Binding): 15% | remaining activity at 10 µM (MAO-A; [3]): 85% | TBRs at 4 h post injection (BxPC-3 pancreatic tumors): > 2 | decrease of fluorescence intensity of tumors at 4 h compared to 0.5 h post injection (MCF-7 breast tumors): 61% ± 8% | decrease of fluorescence intensity of tumors at 24 h compared to 0.5 h post injection (MCF-7 breast tumors): 77% ± 4% | TBR at 4 h post injection, with skin (MCF-7 breast tumors; single mouse with 2 tumors): 1.5 ± 0.1 | TBR at 4 h post injection, skin removed (MCF-7 breast tumors; single mouse with 2 tumors, p = 0.02): 3.0 ± 0.3 | Clearance ([1]; mice, 10 nmol i.v., mean systemic clearance ± SD, n = 5): 0.25 ± 0.06 mL/min | Distribution (α) half-life [1, 4]: 0.243 ± 0.0283 h | Terminal (β) half-life [1, 4]: 1.18 ± 0.157 h | maximal concentration in serum ([1]; mice, 10 nmol i.v., measured at 1 minute post injection, n = 5, fluorescence (FLARE) with calibration curve): 1.17 µM | AUC ([1]; mice, 10 nmol i.v., trapezoid rule, mean ± SD, n = 5): 38.9 ± 8.9 | Half-life ([1]; mice, blood, 10 nmol i.v., calculated via ln(2)/k10, mean ± SD, n = 5): 0.422 ± 0.107 h | Elimination (β) half-life ([1]; mouse no. 1): 1.08 h | Elimination (β) half-life ([1]; mouse no. 2): 1.42 h | Elimination (β) half-life ([1]; mouse no. 3): 1.14 h | Elimination (β) half-life ([1]; mouse no. 4): 1.25 h | Elimination (β) half-life ([1]; mouse no. 5): 1.03 h | activity at 10 µM (Potassium Channel hERG): 106%
